Measurements published in publication PMC10250785, “Aromatic oligoesters as novel helix mimetic scaffolds” (Bioorganic & Medicinal Chemistry, 2023).

How the values were obtained:
[1] = Aqueous stability of dimers in buffered pH solutions (TLC, LCMS/HPLC UV); type: physicochemical; details: r.t.; for remaining at 168 h, 5 mg/mL: bicarbonate buffer pH 12.5 / acetonitrile (1:1), pH 12.5 (bicarbonate) buffer, 50% MeCN: buffer, 5 mg/mL dimer, after 7 days, from HPLC UV traces
Experimental: Human serum pH is tightly regulated around 7.4, with intracellular pH controlled between pH 6.0–7.2, and gastric pH between 1.4–3.5.[37] […] Given the prevalence of ester linkages in pro-drug structures[38] and the facile hydrolysis of esters in aqueous media, the stability of our scaffold was a concern. We therefore investigated the stability of dimers 25 and 29 over extended periods of time in aqueous solution from pH2.5–12.5. To monitor dimer stability over time, 10 mM pH buffer solutions of: 2.5(acetate), 5.0(acetate), 7.4 (phosphate-buffered saline), 10.0 (bicarbonate), and 12.5 (bicarbonate) were selected, to obtain a pH range similar to those present within the human body. Since both dimers are insoluble in water, they were firstly dissolved in acetonitrile, before addition to the buffered solutions to form a 5 mg/mL dimer solution (50% MeCN: buffer). Degradation was monitored via TLC over time, and the final solution composition was determined by LCMS after 7 days (Fig 3 and Figure S3).
Fig. 3 Dimers 25 and 29 were incubated for 7 days in a range of buffered pH solutions and % dimer remaining measured by integration of UV peaks from an HPLC Diode array trace.
To pre-prepared 100 mM pH buffer solutions (1.00 mL), including pH 2.5, 5.0, 7.4, 10.0 and 12.5 (Table 2), was added the dimer (10 mg/mL in MeCN) at r.t, forming a final solution with dimer concentration 5 mg/mL. The mixture was stirred at r.t. for 7 days and monitored via TLC and LCMS (50% MeCN) to follow ester bond degradation.

| remaining at 168 h, 5 mg/mL [1] [%] | time before ester hydrolysis occurs ([1]; pH 12.5, 50% MeCN: buffer) [days] | melting point [°C] | Compound |
| --- | --- | --- | --- |
| 6 | > 5 | – | C=CCOc1ccc(C(=O)Oc2ccc(C(=O)OC)cc2OC(C)C)cc1OC(C)C [Compound 25, 2-isopropoxy-4-(methoxycarbonyl)phenyl 4-(allyloxy)-3-isopropoxybenzoate] |
| – | – | 67 to 68 | C=CCOc1ccc(C(=O)OC)cc1O [Compound 1, Methyl 4-(allyloxy)-3-hydroxybenzoate] |
| 49 | – | – | COC(=O)c1ccc(OC(=O)c2ccc(O)c(OC)c2)c(OC)c1 [Compound 29, 2-methyoxy-4-(methoxycarbonyl)phenyl 4-hydroxy-3-methoxybenzoate] |
